Laboratory results from ChEMBL document CHEMBL1909046, “DrugMatrix in vitro pharmacology data”.

What was measured:
[1] = molecular target: T1, 5-hydroxytryptamine receptor 2C (Homo sapiens, UniProt P28335); assay: DRUGMATRIX: Serotonin (5-Hydroxytryptamine) 5-HT2C radioligand binding (ligand: [3H] Mesulergine); assay type: cell membranes, CHO-K1, Membrane; conditions: Not Active = under 50% inhibition at 10 µM; for Ki: read-out: Ki
T1 sequence (P28335 whole entry): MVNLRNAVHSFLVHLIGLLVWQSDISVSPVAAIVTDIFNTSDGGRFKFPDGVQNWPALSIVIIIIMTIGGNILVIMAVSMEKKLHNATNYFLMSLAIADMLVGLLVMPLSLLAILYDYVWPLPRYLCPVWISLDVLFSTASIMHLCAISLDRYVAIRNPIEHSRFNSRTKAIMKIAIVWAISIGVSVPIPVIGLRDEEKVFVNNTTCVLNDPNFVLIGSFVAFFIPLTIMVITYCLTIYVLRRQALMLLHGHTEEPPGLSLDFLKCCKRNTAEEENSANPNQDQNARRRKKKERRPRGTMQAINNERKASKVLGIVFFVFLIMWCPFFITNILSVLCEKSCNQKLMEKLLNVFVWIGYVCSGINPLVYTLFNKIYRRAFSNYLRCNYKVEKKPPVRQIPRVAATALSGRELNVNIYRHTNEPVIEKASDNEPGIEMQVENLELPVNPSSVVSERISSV

[2] = molecular target: Voltage-gated inwardly rectifying potassium channel KCNH2 (Homo sapiens, UniProt Q12809); conditions: hek293; note: in other assays of this panel Not Active means under 50% inhibition at 10 µM
Chain of Voltage-gated inwardly rectifying potassium channel KCNH2 (Q12809 whole entry): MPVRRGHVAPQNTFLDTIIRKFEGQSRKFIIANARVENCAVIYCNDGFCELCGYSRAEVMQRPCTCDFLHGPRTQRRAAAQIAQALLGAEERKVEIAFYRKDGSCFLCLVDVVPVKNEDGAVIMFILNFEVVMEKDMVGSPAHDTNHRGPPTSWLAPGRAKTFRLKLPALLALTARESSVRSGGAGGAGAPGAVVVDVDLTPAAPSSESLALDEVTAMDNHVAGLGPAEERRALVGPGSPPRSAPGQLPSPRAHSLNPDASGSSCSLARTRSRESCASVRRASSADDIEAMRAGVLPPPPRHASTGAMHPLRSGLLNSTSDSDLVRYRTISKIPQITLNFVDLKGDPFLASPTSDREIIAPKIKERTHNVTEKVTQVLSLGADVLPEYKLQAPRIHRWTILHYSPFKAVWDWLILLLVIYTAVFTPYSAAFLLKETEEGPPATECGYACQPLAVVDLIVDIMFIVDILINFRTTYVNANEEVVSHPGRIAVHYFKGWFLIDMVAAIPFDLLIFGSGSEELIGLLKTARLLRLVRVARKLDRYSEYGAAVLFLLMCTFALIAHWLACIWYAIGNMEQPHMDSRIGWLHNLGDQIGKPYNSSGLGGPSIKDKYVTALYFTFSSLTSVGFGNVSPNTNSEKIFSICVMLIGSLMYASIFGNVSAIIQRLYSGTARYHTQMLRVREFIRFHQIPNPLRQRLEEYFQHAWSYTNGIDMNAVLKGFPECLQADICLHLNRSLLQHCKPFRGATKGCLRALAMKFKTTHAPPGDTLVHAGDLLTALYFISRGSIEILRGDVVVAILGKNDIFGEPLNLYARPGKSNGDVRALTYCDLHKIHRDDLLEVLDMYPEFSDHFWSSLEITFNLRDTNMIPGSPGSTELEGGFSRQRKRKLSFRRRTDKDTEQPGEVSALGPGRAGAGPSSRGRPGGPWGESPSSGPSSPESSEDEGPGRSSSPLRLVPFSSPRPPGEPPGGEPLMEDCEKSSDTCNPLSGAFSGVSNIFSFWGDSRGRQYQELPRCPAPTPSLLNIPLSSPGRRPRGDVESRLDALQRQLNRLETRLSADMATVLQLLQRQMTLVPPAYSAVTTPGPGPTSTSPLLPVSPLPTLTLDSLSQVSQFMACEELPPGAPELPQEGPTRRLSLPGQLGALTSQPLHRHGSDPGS

[3] = DRUGMATRIX: Glutamate, NMDA, Agonism radioligand binding (ligand: [3H] CGP-39653); assay type: cell membranes, Rattus norvegicus, Wistar, Cerebral cortex, Membrane; conditions: Not Active = under 50% inhibition at 10 µM
[4] = DRUGMATRIX: Calcium Channel Type L, Phenylalkylamine radioligand binding (ligand: [3H] (-)-Desmethoxyverapamil (D-888)); assay type: cell membranes, Rattus norvegicus, Wistar, Brain, Membrane; conditions: Not Active = under 50% inhibition at 10 µM
[5] = molecular target: T2, 5-hydroxytryptamine receptor 1A (Rattus norvegicus, UniProt P19327); assay type: cell membranes, CHO-K1, Membrane; conditions: for Ki: read-out: Ki; for all read-outs here: in other assays of this panel Not Active means under 50% inhibition at 10 µM
T2 sequence (P19327 whole entry): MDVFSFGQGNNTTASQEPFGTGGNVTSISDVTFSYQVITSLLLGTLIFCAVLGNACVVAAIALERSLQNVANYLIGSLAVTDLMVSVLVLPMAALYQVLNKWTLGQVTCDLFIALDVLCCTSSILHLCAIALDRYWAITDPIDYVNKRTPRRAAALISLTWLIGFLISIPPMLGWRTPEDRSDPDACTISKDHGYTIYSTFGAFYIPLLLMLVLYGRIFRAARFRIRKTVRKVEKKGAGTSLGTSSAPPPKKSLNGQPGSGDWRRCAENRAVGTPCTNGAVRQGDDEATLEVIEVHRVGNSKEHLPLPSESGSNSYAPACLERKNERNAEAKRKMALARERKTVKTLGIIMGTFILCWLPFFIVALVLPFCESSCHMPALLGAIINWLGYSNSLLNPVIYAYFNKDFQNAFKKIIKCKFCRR

| Compound | IC50 ([1]; read-out: IC50) [nM] | Ki [1] [nM] | IC50 [2] | Ki [2] | IC50 [3] | Ki [3] | IC50 [4] | Ki [4] | IC50 ([5]; cho-k1) | IC50 ([4]; read-out: IC50) [nM] | Ki ([4]; read-out: Ki) [nM] | IC50 [5] [nM] | Ki [5] [nM] | IC50 ([1]; cho-k1) | IC50 ([5]; read-out: IC50) [nM] |
| --- | --- | --- | --- | --- | --- | --- | --- | --- | --- | --- | --- | --- | --- | --- | --- |
| Cc1c(C)c2c(c(C)c1O)CCC(C)(CN1CCN(c3cc(N4CCCC4)nc(N4CCCC4)n3)CC1)O2 (configuration not stated) | 7560 | 3960 | Not Active | Not Active | Not Active | Not Active | Not Active | Not Active | Not Active | – | – | – | – | – | – |
| COc1ccc(CCN(C)CCCC(C#N)(c2ccc(OC)c(OC)c2)C(C)C)cc1OC (configuration not stated) | – | – | – | – | Not Active | Not Active | – | – | – | 47 | 45 | 3020 | 1730 | – | – |
| CC(C)Cc1ccc([C@@H](C)C(=O)O)cc1 [(R)-IBUPROPHEN] | – | – | Not Active | Not Active | Not Active | Not Active | Not Active | Not Active | Not Active | – | – | – | – | Not Active | – |
| CN(C)CCOC(c1ccccc1)c1ccccc1 [DIPHENHYDRAMINE] | – | – | – | – | – | – | – | – | Not Active | – | – | – | – | – | – |
| Clc1ccc(COC(Cn2ccnc2)c2ccc(Cl)cc2Cl)cc1 (configuration not stated) [ECONAZOLE] | – | – | – | – | – | – | – | – | – | – | – | – | 9240 | – | 16200 |
| CCN(CC)CCOc1ccc(/C(=C(/Cl)c2ccccc2)c2ccccc2)cc1 [ENCLOMIPHENE] | 1270 | 666 | Not Active | Not Active | – | – | – | – | Not Active | – | – | – | – | – | – |
| Fc1ccc(C(c2ccc(F)cc2)N2CCN(C/C=C/c3ccccc3)CC2)cc1 [FLUNARIZINE] | 669 | 351 | – | – | – | – | – | – | – | – | – | – | 2450 | – | 4280 |
| CNCCC(Oc1ccc(C(F)(F)F)cc1)c1ccccc1 (configuration not stated) [FLUOXETINE] | – | – | – | – | – | – | – | – | Not Active | – | – | – | – | – | – |
| Cc1ccc(NC(=O)c2ccc(CN3CCN(C)CC3)cc2)cc1Nc1nccc(-c2cccnc2)n1 [IMATINIB] | – | – | – | – | – | – | – | – | Not Active | – | – | – | – | Not Active | – |
| CC(C)Oc1ccc2c(=O)c(-c3ccccc3)coc2c1 [IPRIFLAVONE] | – | – | Not Active | Not Active | Not Active | Not Active | Not Active | Not Active | Not Active | – | – | – | – | Not Active | – |
| CC(C)NCC(O)c1ccc(O)c(O)c1 (configuration not stated) [ISOPROTERENOL] | – | – | Not Active | Not Active | Not Active | Not Active | Not Active | Not Active | Not Active | – | – | – | – | Not Active | – |
| CNC1(c2ccccc2Cl)CCCCC1=O (configuration not stated) [KETAMINE] | – | – | Not Active | Not Active | Not Active | Not Active | Not Active | Not Active | Not Active | – | – | – | – | Not Active | – |
| N#Cc1ccc(C(c2ccc(C#N)cc2)n2cncn2)cc1 [LETROZOLE] | – | – | Not Active | Not Active | Not Active | Not Active | Not Active | Not Active | Not Active | – | – | – | – | Not Active | – |
| CCN1CCC[C@H]1CNC(=O)c1cc(S(N)(=O)=O)ccc1OC [LEVOSULPIRIDE] | – | – | Not Active | Not Active | Not Active | Not Active | Not Active | Not Active | Not Active | – | – | – | – | Not Active | – |
| CCN(CC)CC(=O)Nc1c(C)cccc1C [LIDOCAINE] | – | – | – | – | Not Active | Not Active | Not Active | Not Active | Not Active | – | – | – | – | Not Active | – |
| O=C1Nc2ccc(Cl)cc2C(c2ccccc2Cl)=NC1O (configuration not stated) [LORAZEPAM] | – | – | Not Active | Not Active | Not Active | Not Active | Not Active | Not Active | Not Active | – | – | – | – | Not Active | – |
| CO[C@@H]1[C@@H](OC)[C@H](C)[C@@](O)(CC(=O)O)O[C@H]1[C@H](C)[C@H]1O[C@@]2(CC[C@@](C)([C@H]3CC[C@@](C)([C@@H]4O[C@@H]([C@H]5O[C@](C)(O)[C@H](C)C[C@@H]5C)C[C@@H]4O[C@@H]4C[C@H](OC)[C@@H](OC)[C@H](C)O4)O3)O2)C[C@H](O)[C@H]1C [MADURAMICIN ACID] | 34 | 18 | Not Active | Not Active | Not Active | Not Active | Not Active | Not Active | – | – | – | – | 4.47 | – | 7.83 |
| COc1c2occc2cc2ccc(=O)oc12 [METHOXSALEN] | – | – | Not Active | Not Active | Not Active | Not Active | Not Active | Not Active | Not Active | – | – | – | – | Not Active | – |
| C[C@H]1C[C@@H]2[C@H]([C@@H](O)C[C@@]3(C)[C@H]2CC[C@]3(O)C(=O)CO)[C@@]2(C)C=CC(=O)C=C12 [METHYLPREDNISOLONE] | – | – | Not Active | Not Active | Not Active | Not Active | Not Active | Not Active | Not Active | – | – | – | – | Not Active | – |
| Cc1cccc(C)c1OCC(C)N (configuration not stated) [MEXILETINE] | – | – | Not Active | Not Active | Not Active | Not Active | Not Active | Not Active | Not Active | – | – | – | – | Not Active | – |
| Nc1cc(N2CCCCC2)nc(N)[n+]1[O-] [MINOXIDIL] | – | – | Not Active | Not Active | Not Active | Not Active | Not Active | Not Active | Not Active | – | – | – | – | Not Active | – |
| CO[C@H]1/C=C/O[C@@]2(C)Oc3c(C)c(O)c4c(O)c(c(/C=N/N5CCN(C6CCCC6)CC5)c(O)c4c3C2=O)NC(=O)/C(C)=C\C=C\[C@H](C)[C@H](O)[C@@H](C)[C@@H](O)[C@@H](C)[C@H](OC(C)=O)[C@@H]1C [RIFAPENTINE] | – | – | Not Active | Not Active | Not Active | Not Active | Not Active | Not Active | Not Active | – | – | – | – | Not Active | – |
| CCCCOc1cc(CC2CNC(=O)N2)ccc1OC (configuration not stated) [RO-201724] | – | – | Not Active | Not Active | Not Active | Not Active | Not Active | Not Active | Not Active | – | – | – | – | Not Active | – |
| CC[C@@H](C(=O)[C@@H](C)[C@@H](O)[C@H](C)[C@@H]1O[C@@H]([C@@H](CC)C(=O)O)CC[C@@H]1C)[C@H]1O[C@]2(C=C[C@@H](O)[C@]3(CC[C@@](C)([C@H]4CC[C@](O)(CC)[C@H](C)O4)O3)O2)[C@H](C)C[C@@H]1C [SALINOMYCIN] | – | – | Not Active | Not Active | Not Active | Not Active | Not Active | Not Active | Not Active | – | – | – | – | Not Active | – |
| O=C(Oc1ccccc1C(=O)O)c1ccccc1O [SALSALATE] | – | – | Not Active | Not Active | Not Active | Not Active | Not Active | Not Active | Not Active | – | – | – | – | Not Active | – |
| O=C(O)c1cn(-c2ccc(F)cc2)c2cc(N3CCNCC3)c(F)cc2c1=O [SARAFLOXACIN] | – | – | Not Active | Not Active | Not Active | Not Active | Not Active | Not Active | Not Active | – | – | – | – | Not Active | – |
| CN[C@H]1CC[C@@H](c2ccc(Cl)c(Cl)c2)c2ccccc21 [SERTRALINE] | 1080 | – | – | – | – | – | – | – | Not Active | – | – | – | – | – | – |
| COc1cc2nc(N3CCN(C(=O)C4CCCO4)CC3)nc(N)c2cc1OC (configuration not stated) [TERAZOSIN] | – | – | – | – | Not Active | Not Active | Not Active | Not Active | Not Active | – | – | – | – | Not Active | – |
